Reference: US10118966B2, “Anti-EGFR monoclonal antibody, methods of making, and uses thereof in the treatment of cancer” (Shanghai Biomabs Pharmaceuticals Co., Ltd., priority 2015, dated 2018)
Like-named read-outs stand apart in the source and are kept apart here.

Legend:
[1] = system: metastatic colorectal cancer; settings: EPIC, cited from earlier work
[2] = system: metastatic colorectal cancer; assay: CMAB009 Ph2/3 trial; assay type: in vivo, human
Protocol: 501 patients were identified and randomized in a 2:1 manner to group 1 or group 2. […] Patients in both groups were treated until the disease progressed or the patient reached an unacceptable level of toxicity.
Patients were evaluated for radiologic response in both group 1 and group 2. […] Note the overall response rate (ORR) in Table 6 was determined according to the sum of the rate of CR and PR, and the disease control rate (DCR) was determined according to the sum of the rates of CR, PR, and SD.

[3] = radiologic response, n = 648 / n = 650
[4] = radiologic response, n = 337 / n = 164

What does the source list for `CCc1c2c(nc3ccc(OC(=O)N4CCC(N5CCCCC5)CC4)cc13)-c1cc3c(c(=O)n1C2)COC(=O)[C@]3(O)CC` [Irinotecan monotherapy, irinotecan]?
Overall survival [1]: 10.0 months; Time to disease progression [1]: 2.6 months; Disease control rate, no. of patients ([1]; n = 648 / n = 650): 298; Disease control rate, rate in parentheses ([1]; n = 648 / n = 650): (45.8); Overall response rate, no. of patients ([1]; n = 648 / n = 650): 27; Overall response rate, rate in parentheses ([1]; n = 648 / n = 650): (4.2; Complete response, no. of patients [1, 3]: 1; Complete response, rate in parentheses [1, 3]: (0.2); Partial response, no. of patients [1, 3]: 26; Partial response, rate in parentheses [1, 3]: (4.0); Progressive disease, no. of patients [1, 3]: 243; Progressive disease, rate in parentheses [1, 3]: (37.4); Stable disease, no. of patients [1, 3]: 271; Stable disease, rate in parentheses [1, 3]: (41.7); Unable to evaluate, no. of patients [1, 3]: 72; Unable to evaluate, rate in parentheses [1, 3]: (11.1); Time to disease progression ([2]; CMAB009 Ph2/3 trial): 3.2 months; Test drug-related death AE, no. of patients ([2]; N = 342 / N = 170): 0; At least one ADR, % ([2]; human, in vivo): (74.1%); At least one ADR, no. of patients ([2]; human, in vivo): 126; At least one AE which lead to stop drug treatment, % ([2]; human, in vivo): (15.9%); At least one AE which lead to stop drug treatment, no. of patients ([2]; human, in vivo): 27; At least one AE, % ([2]; human, in vivo): (87.1%); At least one AE, no. of patients ([2]; human, in vivo): 148; At least one Level III or above ADR, % ([2]; human, in vivo): (5.9%); At least one Level III or above ADR, no. of patients ([2]; human, in vivo): 10; At least one Level III or above AE, % ([2]; human, in vivo): (7.1%); At least one Level III or above AE, no. of patients ([2]; human, in vivo): 12; At least one Level III or above important AE, % ([2]; human, in vivo): (6.5%); At least one Level III or above important AE, no. of patients ([2]; human, in vivo): 11; At least one SAE, % ([2]; human, in vivo): (4.7%); At least one SAE, no. of patients ([2]; human, in vivo): 8; At least one important AE, % ([2]; human, in vivo): (70.6%); At least one important AE, no. of patients ([2]; human, in vivo): 120; At least one test drug-related SAE, % ([2]; human, in vivo): (0.6%); At least one test drug-related SAE, no. of patients ([2]; human, in vivo): 1; Grade 3-4 adverse events: Abdominal pain, no. of patients ([2]; human, in vivo): 0; Grade 3-4 adverse events: Acne-like rash, no. of patients ([2]; human, in vivo): 0; Grade 3-4 adverse events: Anemia, no. of patients ([2]; human, in vivo): 3; Grade 3-4 adverse events: Anemia, rate in parentheses ([2]; human, in vivo): 1.8; Grade 3-4 adverse events: Any, no. of patients ([2]; human, in vivo): 57; Grade 3-4 adverse events: Asthenia, no. of patients ([2]; human, in vivo): 6; Grade 3-4 adverse events: Asthenia, rate in parentheses ([2]; human, in vivo): 3.7; Grade 3-4 adverse events: Diarrhea, no. of patients ([2]; human, in vivo): 12; Grade 3-4 adverse events: Diarrhea, rate in parentheses ([2]; human, in vivo): 7.3; Grade 3-4 adverse events: Fever, no. of patients ([2]; human, in vivo): 1; Grade 3-4 adverse events: Fever, rate in parentheses ([2]; human, in vivo): 0.9; Grade 3-4 adverse events: Nausea and vomiting, no. of patients ([2]; human, in vivo): 16; Grade 3-4 adverse events: Nausea and vomiting, rate in parentheses ([2]; human, in vivo): 9.8; Grade 3-4 adverse events: Neutropenia, no. of patients ([2]; human, in vivo): 14; Grade 3-4 adverse events: Neutropenia, rate in parentheses ([2]; human, in vivo): 8.5; Grade 3-4 adverse events: Stomatitis, no. of patients ([2]; human, in vivo): 0; Grade 3-4 adverse events: Thrombocytopenia, no. of patients ([2]; human, in vivo): 0; Complete response, no. of patients [2, 4]: 1; Complete response, rate in parentheses [2, 4]: (0.6); Partial response, no. of patients [2, 4]: 20; Partial response, rate in parentheses [2, 4]: (12.2); Progressive disease, no. of patients [2, 4]: 44; Progressive disease, rate in parentheses [2, 4]: (26.8); Stable disease, no. of patients [2, 4]: 86; Stable disease, rate in parentheses [2, 4]: (52.4); Unable to evaluate, no. of patients [2, 4]: 13; Unable to evaluate, rate in parentheses [2, 4]: (7.9); Overall response rate, no. of patients ([2]; sum of CR and PR, n = 337 / n = 164): 21; Disease control rate, no. of patients ([2]; sum of CR, PR and SD, n = 337 / n = 164): 107; Overall response rate, rate in parentheses ([2]; sum of the rate of CR and PR, n = 337 / n = 164): (12.8; Disease control rate, rate in parentheses ([2]; sum of the rates of CR, PR, and SD, n = 337 / n = 164): (65.2
